{
  "source": "ChEMBL document CHEMBL1131677",
  "about": "“Synthesis and biological evaluation of substituted 4-(OBz)phenylalanine derivatives as novel N-type calcium channel blockers” (Bioorg Med Chem Lett, 1999)",
  "data": [
    {"target": "Voltage-dependent N-type calcium channel subunit alpha-1B (Homo sapiens, UniProt Q00975)", "sequence (Q00975 whole entry)": "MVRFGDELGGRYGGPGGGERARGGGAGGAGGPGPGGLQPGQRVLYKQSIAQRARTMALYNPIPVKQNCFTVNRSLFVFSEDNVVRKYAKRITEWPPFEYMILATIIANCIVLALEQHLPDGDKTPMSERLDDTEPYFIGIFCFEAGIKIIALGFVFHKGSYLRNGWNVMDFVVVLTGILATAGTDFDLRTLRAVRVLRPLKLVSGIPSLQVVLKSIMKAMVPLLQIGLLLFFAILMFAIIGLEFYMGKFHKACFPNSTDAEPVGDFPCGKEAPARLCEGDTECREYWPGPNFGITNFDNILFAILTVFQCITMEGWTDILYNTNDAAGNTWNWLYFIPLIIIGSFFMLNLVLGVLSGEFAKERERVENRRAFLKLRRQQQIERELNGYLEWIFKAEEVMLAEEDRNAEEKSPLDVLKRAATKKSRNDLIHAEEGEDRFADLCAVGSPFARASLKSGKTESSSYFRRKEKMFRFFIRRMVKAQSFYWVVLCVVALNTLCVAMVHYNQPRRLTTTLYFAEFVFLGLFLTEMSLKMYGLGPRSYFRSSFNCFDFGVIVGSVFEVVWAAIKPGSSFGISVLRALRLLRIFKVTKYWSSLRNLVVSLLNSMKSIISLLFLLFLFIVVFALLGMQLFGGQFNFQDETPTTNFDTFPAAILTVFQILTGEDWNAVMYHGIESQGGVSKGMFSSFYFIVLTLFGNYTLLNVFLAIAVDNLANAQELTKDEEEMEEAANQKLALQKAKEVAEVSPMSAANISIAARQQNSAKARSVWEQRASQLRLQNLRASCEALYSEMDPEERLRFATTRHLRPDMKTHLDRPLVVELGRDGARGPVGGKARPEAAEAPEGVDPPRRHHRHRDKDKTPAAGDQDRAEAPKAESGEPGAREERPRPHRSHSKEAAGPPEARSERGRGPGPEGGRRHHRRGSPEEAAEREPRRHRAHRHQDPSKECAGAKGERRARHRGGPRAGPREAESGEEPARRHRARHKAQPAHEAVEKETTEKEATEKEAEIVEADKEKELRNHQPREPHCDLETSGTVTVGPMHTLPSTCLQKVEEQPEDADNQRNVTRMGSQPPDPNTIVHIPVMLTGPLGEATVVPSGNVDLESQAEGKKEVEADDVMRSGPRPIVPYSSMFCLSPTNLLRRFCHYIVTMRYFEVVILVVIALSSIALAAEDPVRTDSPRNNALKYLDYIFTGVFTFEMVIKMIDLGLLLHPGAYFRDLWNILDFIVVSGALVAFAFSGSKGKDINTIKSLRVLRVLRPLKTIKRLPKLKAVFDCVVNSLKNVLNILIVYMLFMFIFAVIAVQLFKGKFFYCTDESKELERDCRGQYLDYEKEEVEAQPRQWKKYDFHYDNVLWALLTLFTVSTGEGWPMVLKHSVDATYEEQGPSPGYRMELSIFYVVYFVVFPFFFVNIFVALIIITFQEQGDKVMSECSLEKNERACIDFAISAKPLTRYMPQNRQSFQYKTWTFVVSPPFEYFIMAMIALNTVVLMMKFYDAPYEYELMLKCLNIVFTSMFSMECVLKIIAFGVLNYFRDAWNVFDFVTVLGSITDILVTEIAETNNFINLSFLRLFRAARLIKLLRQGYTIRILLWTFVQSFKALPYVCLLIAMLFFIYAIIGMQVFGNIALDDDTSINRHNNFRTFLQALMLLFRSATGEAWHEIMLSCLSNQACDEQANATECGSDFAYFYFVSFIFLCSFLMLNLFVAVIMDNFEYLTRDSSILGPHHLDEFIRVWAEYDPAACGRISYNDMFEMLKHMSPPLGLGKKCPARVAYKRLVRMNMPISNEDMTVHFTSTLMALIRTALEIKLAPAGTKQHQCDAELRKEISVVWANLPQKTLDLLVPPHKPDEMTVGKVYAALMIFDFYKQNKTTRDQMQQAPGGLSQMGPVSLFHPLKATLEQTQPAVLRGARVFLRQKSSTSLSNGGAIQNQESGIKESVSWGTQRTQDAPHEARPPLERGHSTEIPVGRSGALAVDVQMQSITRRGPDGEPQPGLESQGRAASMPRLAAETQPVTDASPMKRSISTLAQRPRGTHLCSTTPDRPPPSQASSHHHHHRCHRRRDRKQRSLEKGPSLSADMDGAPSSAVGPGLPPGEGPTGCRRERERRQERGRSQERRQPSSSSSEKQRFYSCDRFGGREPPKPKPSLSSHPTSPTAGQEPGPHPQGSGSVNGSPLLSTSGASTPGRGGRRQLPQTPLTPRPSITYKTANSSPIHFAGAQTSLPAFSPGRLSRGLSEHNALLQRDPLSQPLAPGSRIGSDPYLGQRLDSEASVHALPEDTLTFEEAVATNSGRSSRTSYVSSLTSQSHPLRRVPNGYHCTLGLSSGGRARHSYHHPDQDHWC", "experiment": "In vitro N-type [Ca2+] channel blocking potency in IMR-32 human neuroblastoma cells", "format": "functional, cell-based", "units": {"IC50": "nM"}, "values": [
      {"smiles": "CC(C)CCN(C)CC(=O)N[C@@H](Cc1ccc(OC(=O)c2ccccc2)cc1)C(=O)NC(C)(C)C", "IC50": 1600},
      {"smiles": "CC(C)CCN[C@@H](CC(C)C)C(=O)N[C@@H](Cc1ccc(OC(=O)c2ccccc2)cc1)C(=O)NC(C)(C)C", "IC50": 300},
      {"smiles": "CC(C)CCN1CCC(C(C)C)CC1C(=O)N[C@@H](Cc1ccc(OC(=O)c2ccccc2)cc1)C(=O)OC(C)(C)C", "note": "(some centres not stated)", "IC50": 490},
      {"smiles": "CC(C)CCN1CCN(C)CC1C(=O)N[C@@H](Cc1ccc(OC(=O)c2ccccc2)cc1)C(=O)OC(C)(C)C", "note": "(some centres not stated)", "IC50": 1000},
      {"smiles": "CC(C)CCN1CCC(C)CC1C(=O)N[C@@H](Cc1ccc(OC(=O)c2ccccc2)cc1)C(=O)OC(C)(C)C", "note": "(some centres not stated)", "IC50": 780},
      {"smiles": "CC(C)CCN(C)[C@H](CC(C)C)C(=O)N[C@@H](Cc1ccc(OC(=O)c2ccccc2)cc1)C(=O)NC(C)(C)C", "IC50": 370},
      {"smiles": "CC(C)CCN1CCCC(C)C1C(=O)N[C@@H](Cc1ccc(OC(=O)c2ccccc2)cc1)C(=O)OC(C)(C)C", "note": "(some centres not stated)", "IC50": 1100},
      {"smiles": "CC(C)CCN1C(C)CCCC1C(=O)N[C@@H](Cc1ccc(OC(=O)c2ccccc2)cc1)C(=O)OC(C)(C)C", "note": "(some centres not stated)", "IC50": 320},
      {"smiles": "CC(C)CCN[C@@H](CC(C)C)C(=O)N[C@@H](Cc1ccc(OC(=O)c2ccccc2)cc1)C(=O)OC(C)(C)C", "IC50": 400},
      {"smiles": "CC(C)CCN(C)[C@H](C(=O)N[C@@H](Cc1ccc(OC(=O)c2ccccc2)cc1)C(=O)NC(C)(C)C)C(C)C", "IC50": 830},
      {"smiles": "CC(C)CCN1CCC(C(=O)N[C@@H](Cc2ccc(OC(=O)c3ccccc3)cc2)C(=O)OC(C)(C)C)CC1", "IC50": 1500},
      {"smiles": "CC(C)CCN1CCCCC1C(=O)N[C@@H](Cc1ccc(OC(=O)c2ccccc2)cc1)C(=O)OC(C)(C)C", "note": "(some centres not stated)", "IC50": 1000}
    ]}
  ]
}
